Laboratory results as given in patent US12514833B2, “Combination of ibuprofen and tramadol for relieving pain” (FARMALÍDER, S.A., priority 2019, dated 2026).
Where a name gives a salt, the structure may show the parent alone.

Tests used:
Type in all cases: in vivo, human
[1] = tested on: patients with moderate to intense somatic pain after dental surgery; test: Example 2: phase III trial, oral ibuprofen arginate/tramadol (400/37.5), pain after dental surgery (VAS, rescue medication, safety); details: 4 doses every 6 hours, 24 hours follow-up, tramadol HCl 50 mg; for Number of rescued patients: N = 95/97/98, ibuprofen arginate 400 mg; for % of rescued patients: ibuprofen arginate 400 mg
Description: (§1) A phase III, multicentre, randomized, double-blind, placebo-controlled study was performed to assess the compared efficacy and safety of the combination of ibuprofen arginate/tramadol HCl (400 mg ibuprofen/37.5 mg tramadol HCl) administered by the oral route, compared to oral tramadol (50 mg), oral ibuprofen arginate (400 mg ibuprofen) and placebo for treating adult patients (aged 18 or more) suffering from moderate to intense somatic pain after dental surgery.
(§2) Pain intensity was assessed using the Visual Analogue Scale (VAS).
The patients selected for the study were adults suffering from moderate to severe pain (VAS 0-100≥45 mm) after surgical extraction of at least two third molars, if only two third molars were extracted, they should be ipsilateral and at least one of them impacted, involving bone removal.
The patients were divided in four groups, receiving the following medication: • Group 1: ibuprofen arginate/tramadol HCl 400 mg/37.5 mg (95 patients) • Group 2: ibuprofen arginate 400 mg (97 patients) • Group 3: tramadol HCl 50 mg (98 patients) • Group 4: placebo (93 patients)
(§3) The amount of ibuprofen arginate (400 mg) is expressed as the amount of ibuprofen in acidic form.
The combination of ibuprofen arginate/tramadol HCl administered to the patients of Group 1 was in the form of a granulate for oral administration (as described in Example 4). Each dosage comprised 340 mg of L-arginine.
The ibuprofen arginate 400 mg administered to the patients of Group 2 corresponded to the commercial medicine Espidifen® 400 mg, each dose comprising 400 mg of ibuprofen, given as 770 mg of ibuprofen arginate.
The 50 mg dose of tramadol HCl 50 mg of Group 3 was administered using the commercial medicine Adolonta® 100 mg/ml oral solution.
After the dental surgery, the pain intensity of each patient was evaluated according to the VAS test until reaching the value ≥45 mm. At that moment, the patient was assigned to one of the four groups in a randomized way and the corresponding medication was administered. A new VAS test was performed after the administration of the first dose of the medication, which was taken as the basal value. 4 doses of each medication were administered, with an interval of 6 hours between doses.
After the administration of each medication, the evolution of patients was followed until 24 hours after the first dosage, by assessing the change in pain intensity.
Patients were allowed to ask for rescue medication during that period, starting 30 minutes after the administration of the first dosage. […]
Pain intensity was assessed for each patient at the following time points: 0 (basal), 1, 2, 3, 4, 5, 6, 8, 12 and 24 hours after the administration of the medication. For each of the four groups, the average VAS value was calculated.

[2] = tested on: patients with visceral moderate to intense pain after non-oncologic abdominal hysterectomy; test: Example 3: phase III trial, oral ibuprofen arginate/tramadol HCl (400/37.5), pain after hysterectomy (VAS, rescue medication, adverse effects); details: tramadol HCl 50 mg; for Total rescued patients (number) / Total rescued patients (%): 8 doses every 6 hours, 48 hours; for Total rescued patients (number): N = 91/94/98, ibuprofen arginate 400 mg; for Total rescued patients (%) / Rescued patients at 24 h (%) / Rescued patients at 24 h (number) / Average time until rescue: ibuprofen arginate 400 mg; for Rescued patients at 24 h (%) / Rescued patients at 24 h (number): first 24 h of the study
Description: as §1, with “placebo-controlled,” for “placebo-controlled”, “from visceral” for “from”, “intense” for “intense somatic”, “non-oncologic abdominal hysterectomy.” for “dental surgery.”
as §2
The patients selected for the study were adults suffering from moderate to severe pain (VAS 0-100≥40 mm) after total or partial abdominal hysterectomy for benign, non-oncologic disease, which required hospitalization during at least 48 hours.
The patients were divided in four groups, receiving the following medication: • Group 1: ibuprofen arginate/tramadol HCl 400 mg/37.5 mg (91 patients) • Group 2: ibuprofen arginate 400 mg (94 patients) • Group 3: tramadol HCl 50 mg (98 patients) • Group 4: placebo (93 patients)
as §3
The combination of ibuprofen arginate/tramadol HCl administered to the patients of Group 1 was in the form of granulate for oral administration (as described in Example 4 below). Each dosage comprised 340 mg of L-arginine.
Patients of Group 2 received the commercial medicine Espidifen® 400 mg, each dose comprising 400 mg of ibuprofen, as 770 mg of ibuprofen arginate.
Patients of Group 3 received the commercial medicine Adolonta® 100 mg/ml oral solution, and a dose of 50 mg of tramadol HCl was administered.
After the surgery, the pain intensity of each patient was evaluated according to the VAS test until reaching the value ≥40 mm. At that moment, each patient was recruited and assigned to one of the four groups in a randomized way and the corresponding medication was administered. A new VAS test was performed after the administration of the first dose of the medication, which was taken as the basal value. Subsequently, 7 more doses of the assigned medication were administered, with an interval of 6 hours between doses, so a total of 8 doses were administered to each patient.
After the administration of the first dosage of each medication, the evolution of the patients was followed until 48 hours after the first dosage, by assessing the change in pain intensity.
After 30 minutes from the first dosage, patients were allowed to request a rescue medication, if needed. Rescue medication was 1 g paracetamol given by the oral route. If a second rescue medication was necessary, a capsule of 575 mg metamizole was administered.
Pain intensity was assessed for each patient at the following time points: 0 (basal), 1, 2, 4, 6, 8, 10, 12, 18, 24, 30, 36, 42 and 48 hours after the administration of the first dosage of the medication. For each of the four groups, the average VAS value was calculated at each time point.

[3] = tested on: patients with moderate to intense pain after dental surgery; test: Example 1: phase III pilot trial, intravenous ibuprofen arginate combined with tramadol, pain after dental surgery (VAS, rescue medication, adverse effects); details: for VAS (average value): single iv infusion
Description: A phase III, multicentre, randomized, double-blind, placebo-controlled, pilot study was performed to assess the compared efficacy and safety of intravenous ibuprofen arginate (400 mg) combined with two different doses of tramadol hydrochloride (37.5 and 75 mg) and of intravenous tramadol 100 mg in patients suffering from moderate to intense pain after dental surgery.
as §2
The patients were divided in four groups, receiving the following medication: • Group 1: ibuprofen arginate/tramadol HCl 400 mg/37.5 mg (16 patients) • Group 2: ibuprofen arginate/tramadol HCl 400 mg/75 mg (18 patients) • Group 3: tramadol HCl 100 mg (18 patients) • Group 4: placebo (saline solution) (17 patients)
The amount of ibuprofen arginate (400 mg) is expressed as the amount of ibuprofen in acidic form. The amount of L-arginine in each composition in groups 1 and 2 was 356 mg, which corresponds to a molar ratio ibuprofen:arginine 1:1.054.
The compositions of groups 1 to 3 were aqueous solutions of the drugs prepared with water for injection. Other excipients included in the compositions were sodium chloride, used as tonicity agent, to reach an osmolality of 310-360 mOsm/Kg, and hydrochloric acid and sodium hydroxide to adjust the pH of the solution to a value in the range 6.8-7.8. The volume of the composition in all groups was 100 ml, which was infused intravenously during 30 minutes, in a single administration. The preparation of the composition used for Group 1 is analogous as disclosed in Example 5. The preparation of the composition used for Group 2 was equivalent, but using 75 mg of tramadol HCl instead of 37.5 mg.
Thus, after the dental surgery, the pain intensity of each patient was evaluated according to the VAS test until reaching the value ≥55 mm. At that moment, the patient was assigned to one of the four groups in a randomized way and the corresponding medication was administered not later than 15 minutes after randomization and not later than 25 minutes after VAS test. A new VAS test was performed at the beginning of the infusion, which was taken as the basal value.
After the administration of each medication, the evolution of patients was followed during 4 hours, by assessing the change in pain intensity.
Patients were allowed to ask for rescue medication during that period, starting 30 minutes after the administration of each treatment. Rescue medication was 1 g paracetamol given by the oral route. If a second rescue medication was necessary, a capsule of 575 mg metamizole was administered. If rescue medication was administered before 4 hours after the administration of the study medication, the patient left the study (but remained still included for assessing safety parameters and was under monitoring for further 4 hours).
Pain intensity was assessed for each patient at the following time points: 0 (basal), 15, 30, 45, 60, 75, 90, 105, 120, 150, 180, 210, and 240 minutes after the administration of the medication. For each of the four groups, the average VAS value was calculated.

SMILES: CC(C)Cc1ccc(C(C)C(=O)O)cc1 (racemic) [ibuprofen arginate, (RS)-2-(4-(2-methylpropyl)phenyl)propanoic acid]
- Number of rescued patients [1]: 6
- % of rescued patients [1]: 6.2%
- Total rescued patients (number) [2]: 23
- Total rescued patients (%) [2]: 24.5%
- Rescued patients at 24 h (%) [2]: 22.3%
- Rescued patients at 24 h (number) [2]: 21
- Average time until rescue [2]: 8.43 h

SMILES: COc1cccc([C@]2(O)CCCC[C@H]2CN(C)C)c1 (racemic) [tramadol HCl, (±)-cis-2-[(dimethylamino)methyl]-1-(3-methoxyphenyl) cyclohexanol]
- Number of rescued patients [1]: 38
- % of rescued patients [1]: 38.8%
- Number of rescued patients ([3]; iv, 4 hours follow-up, N = 16/18/18, tramadol HCl alone 100 mg): 9
- % of rescued patients ([3]; iv, 4 hours follow-up, tramadol HCl alone 100 mg): 50.0%
- Number of patients reporting AE ([3]; iv, N = 16/18/18, tramadol HCl alone 100 mg): 5
- % of patients reporting AE ([3]; iv, tramadol HCl alone 100 mg): 27.8%
- Average time until rescue ([3]; iv, tramadol HCl alone 100 mg): 70 min
- Number of AE ([3]; iv, tramadol HCl alone 100 mg): 9
- VAS (average value) ([3]; 15 min after administration, tramadol HCl alone 100 mg): 48.55 mm
- VAS (average value) ([3]; 30 min, tramadol HCl alone 100 mg): 45.28 mm
- VAS (average value) ([3]; 45 min, tramadol HCl alone 100 mg): 47.11 mm
- VAS (average value) ([3]; 60 min, tramadol HCl alone 100 mg): 51.67 mm
- VAS (average value) ([3]; 75 min, tramadol HCl alone 100 mg): 54.72 mm
- VAS (average value) ([3]; 90 min, tramadol HCl alone 100 mg): 54.44 mm
- VAS (average value) ([3]; 105 min, tramadol HCl alone 100 mg): 53.67 mm
- VAS (average value) ([3]; 120 min, tramadol HCl alone 100 mg): 51.55 mm
- VAS (average value) ([3]; 150 min, tramadol HCl alone 100 mg): 49.39 mm
- VAS (average value) ([3]; 180 min, tramadol HCl alone 100 mg): 47.94 mm
- VAS (average value) ([3]; 210 min, tramadol HCl alone 100 mg): 46.72 mm
- VAS (average value) ([3]; 240 min, tramadol HCl alone 100 mg): 44.50 mm
- VAS (average value) ([3]; time 0 min (basal), tramadol HCl alone 100 mg): 72.83 mm
- Total rescued patients (number) [2]: 31
- Total rescued patients (%) [2]: 31.6%
- Rescued patients at 24 h (%) [2]: 28.6%
- Rescued patients at 24 h (number) [2]: 28
- Average time until rescue [2]: 8.97 h
- number of adverse effects reported relative to Group 1 (ibuprofen/tramadol) [2]: twice
